Source: PubChem BioAssay (NCI)
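Here, GI50 denotes the concentration required for 50% inhibition of growth. TGI: total growth inhibition.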

Experiments:
Test in all cases: NCI anticancer screen, dose series, 384-well format
RPMI-8226 leukemia = tested on: RPMI-8226 leukemia
NCI-H226 lung = tested on: NCI-H226 lung
HCT-116 colon = tested on: HCT-116 colon
CCRF-CEM leukemia = tested on: CCRF-CEM leukemia
EKVX NSCLC = tested on: EKVX NSCLC
SNB-75 CNS = tested on: SNB-75 CNS
COLO 205 colon = tested on: COLO 205 colon
OVCAR-3 ovarian = tested on: OVCAR-3 ovarian
MALME-3M melanoma = tested on: MALME-3M melanoma
CAKI-1 renal = tested on: CAKI-1 renal
SF-268 CNS = tested on: SF-268 CNS
MDA-MB-435 melanoma = tested on: MDA-MB-435 melanoma
NCI-H23 lung = tested on: NCI-H23 lung

`O=C1CC[C@H](N2Cc3c(OCc4ccc(CN5CCOCC5)cc4)cccc3C2=O)C(=O)N1` was tested, and the GI50 (RPMI-8226 leukemia) was 11.9 µM, the TGI (RPMI-8226 leukemia) was over 100 µM and the GI50 (NCI-H226 lung) was over 100 µM. For the same molecule, the TGI (NCI-H226 lung) was over 100 µM, the GI50 (HCT-116 colon) was over 100 µM and the TGI (HCT-116 colon) was over 100 µM. The GI50 (CCRF-CEM leukemia) was over 100 µM, the TGI (CCRF-CEM leukemia) was over 100 µM and the GI50 (EKVX NSCLC) was over 100 µM. For the same molecule, the TGI (EKVX NSCLC) was over 100 µM, the GI50 (SNB-75 CNS) was over 100 µM and the TGI (SNB-75 CNS) was over 100 µM. The GI50 (COLO 205 colon) was over 100 µM, the TGI (COLO 205 colon) was over 100 µM and the GI50 (OVCAR-3 ovarian) was over 100 µM. It also gave a TGI (OVCAR-3 ovarian) of over 100 µM, a GI50 (MALME-3M melanoma) of over 100 µM and a TGI (MALME-3M melanoma) of over 100 µM. The GI50 (CAKI-1 renal) was over 100 µM, the TGI (CAKI-1 renal) was over 100 µM and the GI50 (SF-268 CNS) was over 100 µM. The TGI (SF-268 CNS) was over 100 µM, the GI50 (MDA-MB-435 melanoma) was over 100 µM and the TGI (MDA-MB-435 melanoma) was over 100 µM. The GI50 (NCI-H23 lung) was over 100 µM and the TGI (NCI-H23 lung) was over 100 µM.
